Data published in patent US20100267561A1, “HERBICIDAL PYRIDAZINONE DERIVATIVES” (priority 2007, published 2010).

Tests used:
Format in all cases: in vivo
wild oat (Avena fatua) = test: Test B pre-/postemergence plant response; settings: for Oat, Wild plant response rating: 8 g ai/ha
Procedure, shortened: (§1)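 Seeds were sown and sprayed preemergence, while plants at 2 to 18 cm (1- to 4-leaf stage) got postemergence sprays. Compounds were formulated in a non-phytotoxic solvent mixture with surfactant. After 13 to 15 days in a greenhouse, injury was rated visually against untreated controls, 0 (no effect) to 100 (complete control).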

[1] = system: wheat (Triticum aestivum); test: Test B pre-/postemergence plant response; settings: for Wheat plant response rating: 8 g ai/ha
Procedure, shortened: as §1

[2] = system: yellow nutsedge (Cyperus esculentus); test: Test B pre-/postemergence plant response; settings: for Nutsedge, Yellow plant response rating: 8 g ai/ha
Procedure, shortened: as §1

[3] = system: winter barley (Hordeum vulgare); test: Test B postemergence plant response; settings: for Plant response rating, Barley: Postemergence, scale 0 to 100, 0 no effect, 100 complete control
Procedure, shortened: (§2)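 Test compounds were applied postemergence to plants 2 to 18 cm tall (1- to 4-leaf stage). After 13 to 15 days in a greenhouse, each species was visually compared with untreated controls and rated 0 (no effect) to 100 (complete control).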

[4] = system: windgrass (Apera spica-venti); test: Test B postemergence plant response; settings: for Plant response rating, Windgrass: Postemergence
Procedure, shortened: as §2

[5] = system: canarygrass (Phalaris minor); test: Test B postemergence plant response; settings: for Plant response rating, Canarygrass: Postemergence
Procedure, shortened: as §2

[6] = system: chickweed (Stellaria media); test: Test B postemergence plant response; settings: for Plant response rating, Chickweed: Postemergence
Procedure, shortened: as §2

[7] = system: giant foxtail (Setaria faberi); test: Test A pre-/postemergence plant response
Procedure, shortened: (§3)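 Seeds sown in loam–sand blend; test chemicals in non-phytotoxic solvent with surfactant applied preemergence as directed soil spray and, concurrently, postemergence to plants 2–10 cm tall at one- to two-leaf stage. Greenhouse ~10 days, then visual injury rating vs untreated controls on 0–100 scale (0 = no effect, 100 = complete control).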

corn (Zea mays) = test: Test A pre-/postemergence plant response
Procedure, shortened: as §3

[8] = system: velvetleaf (Abutilon theophrasti); test: Test A pre-/postemergence plant response
Procedure, shortened: as §3

[9] = system: large crabgrass (Digitaria sanguinalis); test: Test A pre-/postemergence plant response
Procedure, shortened: as §3

[10] = system: barnyardgrass (Echinochloa crus-galli); test: Test A pre-/postemergence plant response
Procedure, shortened: as §3

[11] = system: morningglory (Ipomoea coccinea); test: Test A pre-/postemergence plant response
Procedure, shortened: as §3

[12] = Postemergence, 16 g ai/ha, scale 0 to 100
[13] = Postemergence, 31 g ai/ha, scale 0 to 100, 0 no effect, 100 complete control
[14] = Postemergence, 62 g ai/ha, scale 0 to 100, 0 no effect, 100 complete control
[15] = Preemergence, 16 g ai/ha, scale 0 to 100 (0 no effect, 100 complete control)
[16] = Preemergence, 31 g ai/ha, 0 to 100 scale, 0 no effect, 100 complete control
[17] = Preemergence, 62 g ai/ha, scale 0 to 100
[18] = 8 g ai/ha, postemergence, 0-100 scale
[19] = 62 g ai/ha, scale 0 to 100, 0 no effect, 100 complete control
[20] = 31 g ai/ha, scale 0 to 100, 0 no effect, 100 complete control
[21] = Postemergence, 31 g ai/ha, 0 to 100 scale, 0 no effect, 100 complete control
[22] = Postemergence, 125 g ai/ha, 0 to 100 scale, 0 no effect, 100 complete control
[23] = Preemergence, 31 g ai/ha, 0 to 100 scale, 0 is no effect, 100 is complete control
[24] = Preemergence, 125 g ai/ha, 0 to 100 scale (0 no effect, 100 complete control)

Cc1cc(-c2ccc(Cl)cc2)nn1-c1c(OC(=O)c2ccccc2Cl)cnn(C)c1=O [Compound 38]
Oat, Wild plant response rating (wild oat (Avena fatua); postemergence, 0-100 scale): 80
Plant response rating, Oat, Wild (wild oat (Avena fatua); [12]): 90
Plant response rating, Oat, Wild (wild oat (Avena fatua); [13]): 95
Plant response rating, Oat, Wild (wild oat (Avena fatua); [14]): 100
Plant response rating, Oat, Wild (wild oat (Avena fatua); [15]): 60
Plant response rating, Oat, Wild (wild oat (Avena fatua); [16]): 85
Plant response rating, Oat, Wild (wild oat (Avena fatua); [17]): 90
Oat, Wild plant response rating (wild oat (Avena fatua); Preemergence, scale 0 to 100): 0
Wheat plant response rating ([1]; postemergence, 0-100 scale): 10
Plant response rating, Wheat [1, 12]: 45
Plant response rating, Wheat [1, 14]: 95
Plant response rating, Wheat [1, 15]: 0
Plant response rating, Wheat [1, 16]: 0
Plant response rating, Wheat [1, 17]: 90
Wheat plant response rating ([1]; Preemergence, scale 0 to 100): 0
Nutsedge, Yellow plant response rating ([2]; postemergence, 0-100 scale): 0
Plant response rating, Nutsedge, Yellow [2, 12]: 0
Plant response rating, Nutsedge, Yellow [2, 13]: 0
Plant response rating, Nutsedge, Yellow [2, 14]: 0
Plant response rating, Nutsedge, Yellow [2, 15]: 0
Plant response rating, Nutsedge, Yellow [2, 16]: 0
Plant response rating, Nutsedge, Yellow [2, 17]: 0
Nutsedge, Yellow plant response rating ([2]; Preemergence, scale 0 to 100): 0
Barley plant response rating [3, 18]: 0
Plant response rating, Barley ([3]; 16 g ai/ha): 0
Plant response rating, Barley ([3]; 31 g ai/ha): 10
Plant response rating, Barley ([3]; 62 g ai/ha): 10
Windgrass plant response rating [4, 18]: 0
Plant response rating, Windgrass ([4]; 16 g ai/ha, scale 0 to 100): 0
Plant response rating, Windgrass [4, 19]: 80
Canarygrass plant response rating [5, 18]: 0
Plant response rating, Canarygrass ([5]; 16 g ai/ha, scale 0 to 100): 0
Plant response rating, Canarygrass [5, 20]: 10
Plant response rating, Canarygrass [5, 19]: 30
Chickweed plant response rating [6, 18]: 0
Plant response rating, Chickweed ([6]; 16 g ai/ha, scale 0 to 100): 0
Plant response rating, Chickweed [6, 20]: 0
Plant response rating, Chickweed [6, 19]: 0
Plant response rating, Foxtail, Giant [7, 21]: 80
Plant response rating, Foxtail, Giant [7, 22]: 90
Plant response rating, Foxtail, Giant [7, 23]: 90
Plant response rating, Foxtail, Giant [7, 24]: 100
Plant response rating, Corn (corn (Zea mays); [21]): 20
Plant response rating, Corn (corn (Zea mays); [22]): 90
Plant response rating, Corn (corn (Zea mays); [23]): 0
Plant response rating, Corn (corn (Zea mays); [24]): 70
Plant response rating, Velvetleaf [8, 21]: 0
Plant response rating, Velvetleaf [8, 22]: 0
Plant response rating, Velvetleaf [8, 23]: 0
Plant response rating, Velvetleaf [8, 24]: 0
Plant response rating, Crabgrass, Large [9, 21]: 40
Plant response rating, Crabgrass, Large [9, 22]: 100
Plant response rating, Crabgrass, Large [9, 23]: 90
Plant response rating, Crabgrass, Large [9, 24]: 100
Plant response rating, Barnyardgrass [10, 21]: 40
Plant response rating, Barnyardgrass [10, 22]: 100
Plant response rating, Barnyardgrass [10, 23]: 90
Plant response rating, Barnyardgrass [10, 24]: 100
Plant response rating, Morningglory [11, 21]: 0
Plant response rating, Morningglory [11, 22]: 0
Plant response rating, Morningglory [11, 23]: 0
Plant response rating, Morningglory [11, 24]: 0
